This test has as its target T1, TcLAR (Theobroma cacao, UniProt D3XFG4).
T1 construct: gene LAR; full-length ORF (361 residues, 1,083 bp) in pET-21a, C-terminal 6xHis tag kept, E. coli Rosetta (DE3), purified by Magne-His
Kind of test: HPLC-UV and radioactivity detection of catechin product. Conditions: labelled compound (3H); 0.4 mM substrate, 0.5 mM NADPH, 100 mM potassium phosphate pH 7.0, 4 mM DTT, 10% glycerol, 30 C, 1 h. It is filed as biochemical.

T1 sequence (D3XFG4 entry or part of it): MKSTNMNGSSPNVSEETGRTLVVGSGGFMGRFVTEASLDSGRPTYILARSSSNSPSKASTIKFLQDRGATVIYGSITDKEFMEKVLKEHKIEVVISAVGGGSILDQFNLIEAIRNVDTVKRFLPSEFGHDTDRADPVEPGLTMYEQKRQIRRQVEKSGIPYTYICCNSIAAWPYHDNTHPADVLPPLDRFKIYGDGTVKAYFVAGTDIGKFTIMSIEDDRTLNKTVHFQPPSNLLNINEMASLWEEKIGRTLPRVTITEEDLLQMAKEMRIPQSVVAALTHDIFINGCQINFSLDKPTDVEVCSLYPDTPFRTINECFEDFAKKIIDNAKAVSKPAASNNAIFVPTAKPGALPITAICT

For the compound `Oc1cc(O)c2c(c1)O[C@H](c1ccc(O)c(O)c1)[C@@H](O)[C@H]2O` [leucocyanidin], the “HPLC-UV and radioactivity detection of catechin product” value is listed as “detected when TcLAR protein was incubated with ^3H -labeled leucocyanidin”.

These data come from paper PMC4233638, “Proanthocyanidin synthesis in Theobroma cacao: genes encoding anthocyanidin synthase, anthocyanidin reductase, and leucoanthocyanidin reductase” (BMC Plant Biology, 2013).
